Test system: P. falciparum 3D7 growth, pLDH absorbance
Assay: blood-stage malaria parasite growth potency – strain 3D7, dose response (AID 2305)

| SMILES | IC50 |
| --- | --- |
| O=C(Nc1cccnc1)c1cc(-c2cc(Cl)ccc2O)n[nH]1 | 720 nM |
| c1cc(-c2ccc(CNC3CC3)cc2)cc(-c2nc3ccccc3[nH]2)c1 | 1660 nM |
| Cc1ccc(NS(=O)(=O)c2cccs2)cc1-c1cccc(C(=O)Nc2ccc(F)cc2)c1 | 650 nM |
| CNC(=O)c1cc(F)c(F)cc1Nc1nc(Nc2cccc(CS(C)(=O)=O)c2)ncc1Cl | 1020 nM |
| Cc1[nH]c(C)c(-c2ccc(-c3ccc(OC(F)(F)F)cc3)cc2)c(=O)c1Cl | 40 nM |
| CC(C)Cc1cn(-c2nc(C(=N)N)cs2)c2cc(Cl)ccc12 | 150 nM |
| CCC(=O)Oc1ccc(NC(=O)c2cccc(OC)c2)cc1 | 770 nM |
| C=CCOC(=O)N1CCC(CNCc2cccc(-c3cccc(-c4nc5ccccc5[nH]4)c3)c2)C1 (centres undefined) | 340 nM |
| O=C(NCC1CCN(Cc2cccc(C(F)(F)F)c2)C1)c1cc(-c2cccc(F)c2)cs1 (centres undefined) | 1180 nM |
| CC(C)(C)c1ccc(CN2CCC(NC(=O)c3ccc(-c4cccc(Cl)c4)s3)CC2)cc1 | 1070 nM |
| Cc1cc(F)ccc1-c1nc(Nc2ccncc2)c2ccn(C)c2n1 | 940 nM |
| O=C(Nc1ccccc1F)NC1CCN(c2ccnc(Nc3ccc(F)cc3)n2)CC1 | 750 nM |
| O=C(Cn1cnc2c(nnn2Cc2ccccc2F)c1=O)Nc1ccc2c(c1)OCCO2 | 950 nM |
| CCOc1ccc(C(C)NC(=O)Nc2ccccc2)cc1OCC (centres undefined) | 900 nM |
| c1cc(CN2CCCCC2)cc(-c2ccc(-c3nc4ccccc4[nH]3)s2)c1 | 870 nM |
| CC(C)NCc1cccc(-c2cccc(-c3nc4ccc(F)cc4[nH]3)c2)c1 | 280 nM |
| C[C@@H](N=C(Nc1ccc(-c2ccccc2)cc1)Nc1ccc(C#N)cc1O)c1ccc(Br)cc1 | 700 nM |
| CCCNC(=O)Nc1cc2cc(-c3ccc(CN4CCCC4)cc3)ccc2n2c(C)nnc12 | 1500 nM |
| c1ccc2oc(-c3cc4ccncc4cc3OC3CCNCC3)cc2c1 | 1470 nM |
| CCN1CCCC1CNC(=O)c1cc2c(-c3ccc(Cl)cc3)nn(C)c2s1 (centres undefined) | 790 nM |
| CC(C)CCOc1ccc(NC(=O)c2cccs2)cc1 | 510 nM |
| Cc1cccc2[nH]c(-c3cccc(-c4cccc(NC(=O)c5cnn6cccnc56)c4)c3)nc12 | 670 nM |
| CCOc1ccc(-c2nonc2NC(=O)c2ccc(OC)cc2)cc1OCC | 820 nM |
| O=C(Nc1cccc([N+](=O)[O-])c1)N(Cc1ccc(Cl)c(Cl)c1)C1CCNCC1 | 720 nM |
| COc1ccc(CNCc2ccc(-c3cccc(-c4nc5ccc(F)cc5[nH]4)c3)cc2)cc1 | 200 nM |

| SMILES | IC50 |
| --- | --- |
| Cn1cncc1C(=O)Nc1cccc(-c2cccc(-c3nc4ccc(F)cc4[nH]3)c2)c1 | 490 nM |
| N#Cc1ccc(-c2ccc(OCC(O)CN3CCCN(Cc4cccc(O)c4Cl)CC3)cc2)cc1 (centres undefined) | 690 nM |
| CCCCN(CCCC)CCCN(CCCN(CCCC)CCCC)c1cc(C)nc(Nc2ccc(Cl)cc2)n1 | 370 nM |
| Cc1cccc(-c2nc3[nH]c(=O)cc(NC(=O)C(C)C)n3n2)c1 | 420 nM |
| Cc1ccc(C[C@H](C)NC[C@H](O)c2cccc(C(F)(F)F)c2)cc1 | 980 nM |
| Cc1nn(-c2ccc(Cl)cc2)c2[nH]c(CN3CCN(c4cccc(Cl)c4)CC3)cc(=O)c12 | 240 nM |
| Cc1cc(NCCCCCCCCNc2cc(C)nc3ccccc23)c2ccccc2n1 | 990 nM |
| COc1cc2c(cc1C(F)(F)F)N(C(=O)Nc1cc(F)cc(-c3cccnn3)c1)CC2 | 270 nM |
| O=C(OCc1ccccn1)c1nc2ccccc2[nH]1 | 790 nM |
| CN1CCC(O)(c2ccc(Br)cc2)C(C(O)c2ccc(Br)cc2)C1 (centres undefined) | 730 nM |
| Cc1ccc(-c2nc3ccc(C(=O)NC4CCN(Cc5ccccc5)CC4)cc3[nH]2)cc1 | 740 nM |
| Clc1ccc(-c2cnc3ccc(NCc4ccncc4)nn23)cc1 | 890 nM |
| COc1cc(C(=O)N2CCOC(CCN3CCC(c4ccc(Cl)cc4)CC3)(c3ccc(Cl)c(Cl)c3)C2)cc(OC)c1OC (centres undefined) | 180 nM |
| c1ccc2[nH]c(Nc3ccc(Nc4nc5ccccc5[nH]4)cc3)nc2c1 | 780 nM |
| Cc1c(-c2cccc(Br)c2)[nH]c2nc(N)nc(N)c12 | 740 nM |
| c1ccc(-c2nc(NC3CCCCC3)cc(C3CC3)n2)nc1 | 730 nM |
| Cn1ncc2c3c(CCN4CCC(NCc5cc6c(cn5)OCC6)CC4)c(Cl)cnc3ccc21 | 880 nM |
| CC(Nc1ncc(-c2ccsc2)c(-c2nccs2)n1)c1ccc2c(c1)OCCO2 (centres undefined) | 170 nM |
| Cc1cc(N[C@@H](Cc2ccccc2)C(=O)NCCOc2ccccc2)nc(NCCc2ccccn2)n1 | 1520 nM |
| c1ccc(COc2ccc(C3CCCCC3)cc2)nc1 | 770 nM |
| Cc1cc(CNCCCCCCCNCc2ccc(Cl)cc2)ccc1O | 980 nM |
| CN(C)Cc1ccc(-c2ccc3c(Nc4ccc(Oc5ccccc5)cc4)ccnc3c2)o1 | 790 nM |
| N#Cc1ccc(C(=O)Nc2cc(-c3cccc(O)c3)cc3[nH]ncc23)cc1 | 1370 nM |
| CN(C)CCOc1ccc(-c2cc(-c3ccnc(N)n3)c(-c3ccc(Cl)c(O)c3)o2)cc1 | 980 nM |
| Cc1ccc(NC(=O)C2CCC2)cc1-c1ccc(C(=O)NCC2CC2)cc1 | 740 nM |

| SMILES | IC50 |
| --- | --- |
| O=C(N[C@@H]1C[C@H]1c1ccccc1)N(CCCn1ccnc1)Cc1csc(-c2ccc(CNCc3ccccc3)cc2)n1 | 850 nM |
| CCc1ccc(C2CCN(CCCCNC(=O)c3ccc(NC(=O)c4ccc(Cl)cc4)cc3)CC2)c(OC)c1 | 790 nM |
| COc1ccccc1CNC(=O)CCn1c(=O)[nH]c2ccsc2c1=O | 1040 nM |
| Fc1ccc2c(NN=Cc3ccccc3F)ccnc2c1 | 560 nM |
| COc1ccc(NC(=O)[C@H](Cc2ccccc2)Nc2cc(C)nc(Nc3ccccc3)n2)cc1 | 1010 nM |
| CN1CCN(CC(=O)Nc2ccc(-c3cccc(-c4nc5ccc(F)cc5[nH]4)c3)cc2)CC1 | 830 nM |
| CCOc1cccc(C(=O)Nc2ccc(-c3nc4ccccc4[nH]3)cc2)c1 | 1010 nM |
| CCCNC(=O)c1cncc(-c2cccc(CNC3Cc4ccccc4C3)c2)c1 | 800 nM |
| O=C(Nc1cccc(F)c1)NC1CCN(c2ccnc3cc(Cl)ccc23)CC1 | 610 nM |
| C=CCC(CC=C)N1C(=O)C(c2ccccc2)(c2ccccc2)N=C1N | 660 nM |
| CCOc1ccnc(=O)[nH]1 | 460 nM |
| NS(=O)(=O)c1cccc(-c2ccc3c(=O)[nH]cnc3c2)c1 | 950 nM |
| CS(=O)(=O)Nc1ccc2[nH]cc(C3CCN(CC4CCC(NC(=O)/C=C/c5ccc(Cl)c(Cl)c5)CC4)CC3)c2c1 (centres undefined) | 850 nM |
| COC(=O)Nc1cc(C(F)(F)F)ccc1N1CCCC(NS(=O)(=O)c2ccc(C(C)(C)C)cc2)C1 (centres undefined) | 380 nM |
| CCNc1cc(C(=O)N[C@@H](Cc2ccccc2)[C@H](O)CNC(C)(C)CCCC(C)C)c(F)c(N2CCCS2(=O)=O)c1 | 200 nM |
| COc1cccc2c(NN=Cc3cccc(F)c3)ccnc12 | 930 nM |
| O=C(Nc1cccc(C(F)(F)F)c1)c1cccc(S(=O)(=O)NC2CCCN(CC3CCCCC3)C2)c1 (centres undefined) | 860 nM |
| Cc1ccc(C(=O)Nc2ccc(C)c(OC3CCN(Cc4ccco4)C3)c2)cc1 (centres undefined) | 970 nM |
| CC(=O)Nc1ccc(OCCCN(Cc2ccccc2OC(F)(F)F)c2ccc(C(F)(F)F)c(C#N)c2)c(Cl)c1 | 810 nM |
| O=C(NCc1ccc(F)cc1)Nc1cccc(-c2ccc(-c3nc4ccc(F)cc4[nH]3)cc2)c1 | 230 nM |
| CS(=O)(=O)c1cccc(-c2cnc3[nH]cc(-c4ccc(CCC(=O)O)cc4)c3c2)c1 | 630 nM |
| COc1ccc2ccc(F)c(CCN3CCC(NCc4cc5c(cn4)OCCO5)CC3)c2n1 | 840 nM |
| Cc1noc(C)c1-c1ccc(C(=C2CCCCCC2)c2ccc(O)cc2)cc1 | 190 nM |
| O=C(NCC1CCC(C(=O)NC2CCCc3ccccc32)CC1)c1ccc(O)c(-c2cccc([N+](=O)[O-])c2)c1 (centres undefined) | 940 nM |

Source: PubChem BioAssay AID2305 (GlaxoSmithKline (GSK), 2010)
